# Measurements reported in patent publication US20210196782A1 (priority 2015, published 2021).
# “Also recorded” adds a separate entry of the source.
# How the values were obtained:
# primary cortical neurons [1] = tested on: primary cortical neurons
# [2] = tested on: mouse middle cerebral artery occlusion (MCAO) stroke model; details: in vivo
# primary cortical neurons [3] = type: cell-based
# primary cortical neurons [4] = type: cell-based; remark: listed apart in the source
# primary cortical neurons [5] = tested on: primary cortical neurons; remark: listed apart in the source
# primary cortical neurons [6] = type: cell-based; remark: listed apart in the source
# [7] = tested on: mouse middle cerebral artery occlusion (MCAO) stroke model; details: in vivo; remark: listed apart in the source
# [8] = tested on: mouse middle cerebral artery occlusion (MCAO) stroke model; details: in vivo; remark: listed apart in the source
structure (smiles),measurement,setting,value
"O=C1CC[C@@]2(O)[C@H]3Cc4ccc(O)c5c4[C@@]2(CCN3CC2CC2)[C@H]1O5 [NTX, naltrexone]","neuronal survival (MTT), NMDA, in words",primary cortical neurons [1],did not show any significant effect
same,"neurological score, in words",[2],did not improve any neurological score
same,"ROS production, in words",primary cortical neurons [3],did not show a significant decrease in ROS production
same,"neuronal death (LDH), in words",primary cortical neurons [4],No statistical significant difference
same,"neuronal survival (MTT), in words",primary cortical neurons [5],No statistical significant difference
same,"neuronal death (LDH), NMDA, in words",primary cortical neurons [6],did not show any significant effect
C[C@@H](NC(=O)[C@@H](N)Cc1ccc(O)cc1)C(=O)NCC(=O)N[C@@H](Cc1ccccc1)C(=O)NNC(=O)[C@H](Cc1ccccc1)NC(=O)CNC(=O)[C@@H](C)NC(=O)[C@@H](N)Cc1ccc(O)cc1 [biphalin],"neuronal survival (MTT), NMDA, in words",primary cortical neurons [1],significantly improved relative neuronal survival
same,"more neuronal survival (MTT), NMDA",primary cortical neurons [1]; 3 h,28.7%
same,neurological score improvement,[2],25.5%
same,"neurological score, in words",[2],improved neurological behavior
same,"ROS production, in words",primary cortical neurons [3],significantly decreased ROS production
same,less ROS production,primary cortical neurons [3],29.1%
same,less LDH release,primary cortical neurons [4],30.5%
same,"neuronal death (LDH), in words",primary cortical neurons [4],significantly decreased neuronal cell death
same,"neuronal survival (MTT), in words",primary cortical neurons [5],significantly increased neuronal survival
same,more neuronal survival (MTT),"primary cortical neurons [5]; 3 h, 10 nM",42.6%
same,Horizontal Activity,[7],760
same,No. of Movements,[7],42
same,Rest Time,[7],240 s
same,Stereotpy Counts,[7],390
same,Total Distance (CM),[7],650 CM
same,Vertical Activity,[7],28
same,"locomotor parameters, in words",[7],statistically significantly improved all the locomotor parameters
same,"less LDH release, NMDA",primary cortical neurons [6],18.4%
same,"neuronal death (LDH), NMDA, in words",primary cortical neurons [6],significantly decreased relative neuronal death
same,"edema formation, in words",[8],significantly decreased edema formation
same,"infarct formation, in words",[8],significantly decreased; also recorded: significantly reduced infarct formation
same,reduction in edema formation,[8],56.17%
same,reduction in infarct ratio,[8],67.0%
